Assay results as given in ChEMBL document CHEMBL5233290, “Anulamycins A-F, Cinnamoyl-Containing Peptides from a Lake Sediment Derived Streptomyces” (J Nat Prod, 2023).
Converted amounts (≈) assume the structure as drawn.

Legend:
Bacillus subtilis = test: Antibacterial activity against Bacillus subtilis E168 assessed as inhibition of bacterial growth incubated for 18 hrs by 2-fold serial dilution method; type: functional
Staphylococcus aureus = test: Antibacterial activity against Staphylococcus aureus ATCC 43300 assessed as inhibition of bacterial growth incubated for 18 hrs by 2-fold serial dilution method; type: functional
Escherichia coli = test: Antibacterial activity against Escherichia coli ATCC35218 assessed as inhibition of bacterial growth incubated for 18 hrs by 2-fold serial dilution method; type: functional
A549 = test: Cytotoxicity against human A549 cells assessed as reduction in cell viability incubated for 72 hrs by CCK8 assay; type: functional, cell-based; conditions: A549, 72 h
K562 = test: Cytotoxicity against human K562 cells assessed as reduction in cell viability incubated for 72 hrs by CCK8 assay; type: functional, cell-based; conditions: K562, 72 h
[1] = test system: Staphylococcus epidermidis; test: Antibacterial activity against Staphylococcus epidermidis ATCC12228 assessed as inhibition of bacterial growth incubated for 18 hrs by 2-fold serial dilution method; conditions: ATCC12228, 18 h

C/C=C\c1ccccc1/C=C/C(=O)N[C@@H]1C(=O)N[C@@H](C)C(=O)N[C@@H]([C@H](C)C(=O)O)C(=O)NCC(=O)N[C@@H]([C@@H](O)c2ccccc2)C(=O)N2CCC[C@H]2C(=O)N[C@@H]([C@@H](O)c2ccc(OC)cc2)C(=O)N[C@H](Cc2c[nH]c3ccccc23)C(=O)N[C@@H](O)C(=O)N[C@H](CC(C)C)C(=O)N[C@H]([C@@H](O)C(C)C)C(=O)O[C@@H]1C
MIC (Bacillus subtilis): 16 µM (≈ 23.7 µg/mL) | MIC (Staphylococcus aureus): 16 µM (≈ 23.7 µg/mL) | MIC (Escherichia coli): > 128 µM | IC50 (A549): > 10 µM | IC50 (K562): > 10 µM | MIC [1]: 32 µM (≈ 47.5 µg/mL)

C/C=C\c1ccccc1/C=C/C(=O)N[C@@H]1C(=O)N[C@@H](C)C(=O)N[C@@H](CC(=O)O)C(=O)NCC(=O)N[C@@H]([C@@H](O)c2ccccc2)C(=O)N2CCC[C@H]2C(=O)N[C@@H]([C@@H](O)c2ccc(OC)cc2)C(=O)N[C@H](Cc2c[nH]c3ccccc23)C(=O)N[C@@H](O)C(=O)N[C@H](CC(C)C)C(=O)N[C@H]([C@@H](O)C(C)C)C(=O)O[C@@H]1C
MIC (Bacillus subtilis): 48 µM (≈ 70.5 µg/mL) | MIC (Staphylococcus aureus): 32 µM (≈ 47 µg/mL) | MIC (Escherichia coli): > 128 µM | IC50 (A549): > 10 µM | IC50 (K562): > 10 µM | MIC [1]: 64 µM (≈ 94.1 µg/mL)

C/C=C\c1ccccc1/C=C/C(=O)N[C@H](C(=O)N[C@@H](C)C(=O)N[C@H](C(N)=O)[C@H](C)C(=O)N1CC(=O)N[C@@H]([C@@H](O)c2ccccc2)C(=O)N2CCC[C@H]2C(=O)N[C@@H]([C@@H](O)c2ccc(OC)cc2)C(=O)N[C@H](Cc2c[nH]c3ccccc23)C1=O)[C@@H](C)O
MIC (Bacillus subtilis): 32 µM (≈ 37.4 µg/mL) | MIC (Staphylococcus aureus): 32 µM (≈ 37.4 µg/mL) | MIC (Escherichia coli): > 128 µM | IC50 (A549): > 10 µM | IC50 (K562): > 10 µM | MIC [1]: 64 µM (≈ 74.7 µg/mL)

C/C=C\c1ccccc1/C=C/C(=O)N/C(=C\C)C(=O)N[C@@H](C)C(=O)N[C@H](C(N)=O)[C@H](C)C(=O)N1CC(=O)N[C@@H]([C@@H](O)c2ccccc2)C(=O)N2CCC[C@H]2C(=O)N[C@@H]([C@@H](O)c2ccc(OC)cc2)C(=O)N[C@H](Cc2c[nH]c3ccccc23)C1=O
MIC (Bacillus subtilis): 16 µM (≈ 18.4 µg/mL) | MIC (Staphylococcus aureus): 16 µM (≈ 18.4 µg/mL) | MIC (Escherichia coli): > 128 µM | IC50 (A549): > 10 µM | IC50 (K562): > 10 µM | MIC [1]: 16 µM (≈ 18.4 µg/mL)

C/C=C\c1ccccc1/C=C/C(=O)N[C@H](C(=O)N[C@@H](C)C(=O)N[C@@H](CC(=O)N1CC(=O)N[C@@H]([C@@H](O)c2ccccc2)C(=O)N2CCC[C@H]2C(=O)N[C@@H]([C@@H](O)c2ccc(OC)cc2)C(=O)N[C@H](Cc2c[nH]c3ccccc23)C1=O)C(N)=O)[C@@H](C)O
MIC (Bacillus subtilis): 64 µM (≈ 73.8 µg/mL) | MIC (Staphylococcus aureus): 64 µM (≈ 73.8 µg/mL) | MIC (Escherichia coli): > 128 µM | IC50 (A549): > 10 µM | IC50 (K562): > 10 µM | MIC [1]: 128 µM (≈ 148 µg/mL)

C/C=C\c1ccccc1/C=C\C(=O)N[C@H](C(=O)N[C@@H](C)C(=O)N[C@H](C(N)=O)[C@H](C)C(=O)N1CC(=O)N[C@@H]([C@@H](O)c2ccccc2)C(=O)N2CCC[C@H]2C(=O)N[C@@H]([C@@H](O)c2ccc(OC)cc2)C(=O)N[C@H](Cc2c[nH]c3ccccc23)C1=O)[C@@H](C)O
MIC (Bacillus subtilis): 64 µM (≈ 74.7 µg/mL) | MIC (Staphylococcus aureus): 32 µM (≈ 37.4 µg/mL) | MIC (Escherichia coli): > 128 µM | IC50 (A549): > 10 µM | IC50 (K562): > 10 µM | MIC [1]: 64 µM (≈ 74.7 µg/mL)

C/C=C\c1ccccc1/C=C\C(=O)N[C@H](C(=O)N[C@@H](C)C(=O)N[C@@H](CC(=O)O)C(=O)NCC(=O)N[C@H](C(=O)N1CCC[C@H]1C(=O)N[C@H](C(=O)N[C@H](Cc1c[nH]c2ccccc12)C(N)=O)[C@@H](O)c1ccc(OC)cc1)[C@@H](O)c1ccccc1)[C@@H](C)O
MIC (Bacillus subtilis): > 128 µM | MIC (Staphylococcus aureus): 64 µM (≈ 75 µg/mL) | MIC (Escherichia coli): > 128 µM | IC50 (A549): > 10 µM | IC50 (K562): > 10 µM | MIC [1]: > 128 µM

C/C=C\c1ccccc1/C=C/C(=O)N[C@H](C(=O)N[C@@H](C)C(=O)N[C@@H](CC(=O)O)C(=O)NCC(=O)N[C@H](C(=O)N1CCC[C@H]1C(=O)N[C@H](C(=O)N[C@H](Cc1c[nH]c2ccccc12)C(N)=O)[C@@H](O)c1ccc(OC)cc1)[C@@H](O)c1ccccc1)[C@@H](C)O
MIC (Bacillus subtilis): > 128 µM | MIC (Staphylococcus aureus): 64 µM (≈ 75 µg/mL) | MIC (Escherichia coli): > 128 µM | IC50 (A549): > 10 µM | IC50 (K562): > 10 µM | MIC [1]: > 128 µM

NC[C@H]1O[C@H](O[C@H]2[C@H](O)[C@@H](O[C@H]3O[C@H](CO)[C@@H](O)[C@H](N)[C@H]3O)[C@H](N)C[C@@H]2N)[C@H](O)[C@@H](O)[C@@H]1O [KANAMYCIN]
MIC (Bacillus subtilis): < 2 µM | MIC (Staphylococcus aureus): < 2 µM | MIC (Escherichia coli): < 2 µM | MIC [1]: < 2 µM
